Measured values taken from patent publication US7807368B2, “Cyclin-dependent kinase inhibitors as targets for opiod growth factor treatment” (priority 2006, dated 2010).

Tested on: Rb protein
Experiment: Western blot of Rb and phospho-Rb in synchronized BxPC-3 cells
Format: cell-based, human
Method: Synchronized cells (2×10^6) from each treatment were solubilized in 200 μl RIPA buffer (1×PBS, 10 μM IGEPAL, 1 mg/ml SDS, 5 mg/ml deoxycholic acid), containing protease and phosphatase inhibitors (2 μg/ml aprotinin, 3 mg/ml phenylmethyl sulfonyl fluoride, 1 mM sodium orthovanidate, 1 μM okadaic acid). Total protein concentrations were measured using the DC protein assay kit (Bio-Rad Laboratories, Hercules, Calif.). Equal amounts of protein (40 μg) were subjected to 10% SDS-PAGE followed by transfer of proteins onto polyvinylidene difluoride (Millipore, Billerica, Mass.) using standard protocols.
The following antibodies were purchased from commercial sources: phospho-Rb (Ser795), phospho-Rb (Ser807/811) (Cell Signaling Technology, Beverly, Mass.); Cdk2, p57 (Santa Cruz Biotechnology, Santa Cruz, Calif.); p21, p27, total Rb (BD PharMingen, San Diego, Calif.); β-actin (Clone AC-15, Sigma-Aldrich).
Membranes were probed with secondary anti-rabbit or anti-mouse horseradish peroxidase-conjugated antibodies (GE Healthcare-Amersham Biosciences, Piscataway, N.J.), and developed using a chemiluminescence Western blotting detection system.
To determine equal loading of total protein samples, blots were re-probed with monoclonal antibody against β-actin at a dilution of 1:2000. If necessary, membranes were processed in stripping buffer (62.5 mM Tris-HCI and 100 mM β-mercaptoethanol/2% SDS, pH 6.7) at 50° C. before being re-probed.
To quantify expression levels or kinase activity, the optical density of each band was determined by densitometry and analyzed by QuickOne (Bio-Rad Laboratories). Each value was normalized to β-actin from the same blot. To report the changes due to OGF treatment, we calculated the fold increase by dividing the normalized value from the OGF treated samples by the normalized value of control samples at each time point; thus, increases due to OGF have values greater than one, and decreases due to OGF have values less than one. For all Western blot analyses, 3 or more independent experiments were performed.

## [Met^5]-enkephalin [OGF]
15, 18, and 21 hours, 10^-6 M OGF, significant at 21 hours (p<0.01)
  level of phospho-Rb (Ser795): decreased
OGF treatment, Western blot
  phospho-Rb (pSer807/811) levels: did not alter
After 21 hours of OGF treatment
  Expression of total Rb protein: not decreased
